Data reported in patent US9982249B2, “Xylose isomerases and their uses” (BP Corporation North America Inc., priority 2012, dated 2018).

Tests used:
Assay in all cases: Km and Vmax determination at pH 6 (XI activity assay coupled to sorbitol dehydrogenase, Hanes plot)
Format in all cases: biochemical
Conditions in all cases: xylose about 40-600 mM, about 35° C., lysate of S. cerevisiae CEN.PK2-1Ca expressing XI from p426PGK1
[1] = tested on: Firmicutes xylose isomerase, clone 1753MI4_001, SEQ ID NO: 38
Experimental: (§1) XI activity in cell lysates was determined using a method based on that of Kersters-Hilderson et al., 1986, Enzyme Microb. Technol. 9:145-148, in which enzymatic conversion of xylose to xylulose by the XI is coupled with the enzymatic conversion of the product (xylulose) to xylitol via the enzyme sorbitol dehydrogenase (SDH). SDH activity requires the oxidation of NADH to NAD^+. The rate of oxidation of NADH is directly proportional to the rate of SDH conversion of D-xylulose to D-xylitol and is measured by the decrease in absorbance at 340 nm One unit of enzyme activity as measured by this assay is a decrease of […] of NADH per minute under assay conditions. All reactions, solutions, plates, and spectrophotometer were equilibrated to about 35° C. prior to use. Assays were performed either on fresh lysates immediately after preparation or lysates that had been frozen at −20° C. immediately after preparation. Assays were performed using a BioTek Model: Synergy H1 Hybrid Reader spectrophotometer and 96-well plates (Corning, Model #Costar® #3598). All spectrophotometric readings were performed at 340 nm. […]
(§2) The reaction buffer used for experiments at pH 7.5 was about 100 mM Tris-HCl (pH 7.5). […] For experiments where activity was also measured at pH 6, the buffer was changed to about 100 mM sodium phosphate, pH 6. […]
(§3) Any sample dilutions were performed using the reaction buffer as diluent. […] Reactions were mixed and read immediately using kinetic assay mode for about 10 minutes. Volumetric activity (VA) units are in milli-absorbance (mA) units per minute per ml of lysate added to the reactions (mA/min/ml). […] If protein quantitation was performed, specific activities (SA) were calculated where the units for SA are (mole NADH^+/min/mg, or U/mg lysate protein). […]
(§4) The Km and Vmax at pH 6 were determined for a subset of the XI clones, expressed on p426PGK1 vector in Saccharomyces cerevisiae CEN.PK2-1Ca (ATCC: MYA1108), using the XI activity assay described in the Materials and Methods and varying the concentrations of xylose from about 40-600 mM. […]

[2] = tested on: Prevotella xylose isomerase, clone 1754MI1_001, SEQ ID NO: 78
Experimental: as §1, §2, §3, §4

[3] = tested on: Prevotella xylose isomerase, clone 5586MI108_002, SEQ ID NO: 96
Experimental: as §1, §2, §3, §4

OC1OC[C@@H](O)[C@H](O)[C@H]1O (stereo partly drawn) [xylose, D-xylose]
Km [1]: 28.8 mM | Km [2]: 35.2 mM | Km [3]: 33.7 mM
